According to patent publication US7605175B2, “Inhibitors of cyclin-dependent kinases, compositions and uses related thereto” (GPC Biotech AG, priority 2001, dated 2009):
Where two headings read alike, the source gives them in different places.

Columns and labels:
Cdc2/cyclin B = target: T1, Cdc2/cyclin B (Homo sapiens, UniProt P06493); assay: Biochemical kinase assay Cdc2/cyclin B; conditions: Table 6
T1 construct: purchased
Summary of the method: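 Radiometric TCA-precipitation assay measuring [γ-32P]ATP incorporation into Histone H1 (20 μg); 50 μM ATP, 10% DMSO, Tris pH 7.5 with MgCl2 and DTT. Compounds at 1 nM to 10 μM; reaction 20 min at 30 °C, stopped with EDTA/ATP. Activity relative to DMSO control after subtracting 50 mM EDTA background.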

arrested HCT-116 cells = assay: Arrested cell assay, arrested HCT-116 tumor cells; type: cell-based; conditions: Homo sapiens
Description: Cyclin-dependent kinase (Cdk) activity is required to promote the progression of cells through distinct phases of the cell division cycle. The proliferation of normal, non-transformed, cells in culture requires the presence of growth factors, the removal of which, through serum deprivation, leads to a loss of Cdk activity and consequent exit from the cell cycle as cells enter the quiescent phase, G0.
HCT-116 cells were plated in triplicate for each compound concentration to be tested in RPMI 1640 media containing 10% fetal calf serum at a density of either 200 or 2,000 cells per well in 24 well dishes, and incubated overnight at 37° C., 5% CO2. The media from the plate containing 2,000 cells per well was removed, cells were washed once with serum free media and 1 ml of serum free media was placed on cells. The plates containing cells both in the presence and absence of serum were incubated for 6 additional days.
The cells are incubated in the presence of the compounds for 72 hours (3 days) at 37° C. […] Cycling and arrested HCT-116 cells as well as cycling IMR90 cells were exposed to a panel of 6 doses ranging from 5 to 250 nM. For arrested normal cells, the range of doses was increased to 50 nM to 25 μM, to compensate for the expected decrease in activity.
The effect of 72 hours of compound exposure on cellular viability was assessed in the Calcein AM assay. Calcein AM is a fluorescent substrate of intracellular esterases that are only active in viable cells. Cleavage of the substrate thus provides a measure of viability, which is proportional to cell number.
A Calcein AM stock solution was prepared by dissolving a 50 μg aliquot (Molecular Probes catalogue # C3100) in 50 μl DMSO. The tube was incubated at room temperature for approximately 10 minutes to ensure that the Calcein had dissolved completely. The calcein was diluted into 10 ml PBS to prepare the final solution, which was protected from light.
The media was aspirated off the cells, which were then washed twice with 1 ml PBS to remove the PBS completely from cells by aspiration. 0.5 ml of the Calcein/PBS solution was transferred by pipette into each well. The plates were incubated at 37° C. for 75 minutes (protected from light) and read on a fluorescent plate reader (excitation 485/20 and emission 530/25).

[1] = tested on: NCI panel of 60 cell lines; assay: NCI panel of human tumor cell lines (SRB), Mean-Graph Mid-point; type: cell-based
From the text: The evaluation of compounds at the National Cancer Institute in their panel of 60 cell lines provides a wealth of information regarding efficacy in a wide range of tumor types and genetic backgrounds. Included within this panel are cell lines derived from leukemia, melanoma and cancers of the lung, colon, brain, ovary, breast, prostate and kidney. Use of this panel provides a measure of the efficacy of compounds in cells with alterations in many genes that are associated with neoplastic transformation including p53 and Her2/Neu as well as those involved in metabolism and those which confer multi-drug resistance. The data generated in these cell lines with the protocol described below can be used to evaluate the activity of compounds.
Cells were grown in RPMI-1640 10% FCS and plated in 96 well micro-titer plates at densities ranging from 5,000 to 40,000 cells/well. The plates were incubated for 24 hours at 37° C., 5% CO2 for 24 hours. Media containing twice the desired final concentration of the compound (5 doses spanning 4 logs) was prepared and 100 μl was added to each well containing 100 μl media plus cells to yield the desired final concentration. The plates were then incubated for an additional 48 hours.
The effect of the compound on cellular viability was determined with the Sulforhodamine B (SRB) assay, which measures total protein. Cells were fixed with cold TCA to a final concentration of 10% and incubated at 4° C. for 60 minutes. The supernatant was discarded and the plates were washed five times with water and air-dried. SRB solution at […] in 1% acetic acid was added to each well and the plates were incubated for 10 minutes at room temperature. The plates were washed five times with 1% acetic acid and air-dried. The bound stain was solubilized with 10 mM trizma base and the absorbance was read on a plate reader at […].

arrested IMR90 cells = assay: Arrested cell assay, arrested IMR90 normal cells; type: cell-based; conditions: Homo sapiens, IMR-90
Summary of the method: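 IMR90 cells arrested by 3 days' serum-free culture after overnight plating at 20,000 cells/well (cycling cells kept in 10% FCS), then exposed to compound for 72 h at 37°C; 6 doses, 50 nM to 25 μM. Viability read by Calcein AM esterase fluorescence after 75 min at 37°C.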

[2] = read-out: IC50 for arrested HCT-116 cells
[3] = NCI assay, read-out: Mean-Graph Mid-point
[4] = read-out: IC50 for arrested IMR90 cells

T1 sequence (P06493 whole entry, species assumed): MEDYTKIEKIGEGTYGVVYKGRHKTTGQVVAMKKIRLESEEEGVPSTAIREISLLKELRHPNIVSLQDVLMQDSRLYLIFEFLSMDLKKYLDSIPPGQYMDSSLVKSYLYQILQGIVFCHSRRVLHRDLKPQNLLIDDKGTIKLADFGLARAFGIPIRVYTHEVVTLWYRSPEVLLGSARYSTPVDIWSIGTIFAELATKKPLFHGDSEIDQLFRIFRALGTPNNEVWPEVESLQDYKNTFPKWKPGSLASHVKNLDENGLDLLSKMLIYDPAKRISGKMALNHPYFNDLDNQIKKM
T1 sequence (P14635 whole entry partner, species assumed): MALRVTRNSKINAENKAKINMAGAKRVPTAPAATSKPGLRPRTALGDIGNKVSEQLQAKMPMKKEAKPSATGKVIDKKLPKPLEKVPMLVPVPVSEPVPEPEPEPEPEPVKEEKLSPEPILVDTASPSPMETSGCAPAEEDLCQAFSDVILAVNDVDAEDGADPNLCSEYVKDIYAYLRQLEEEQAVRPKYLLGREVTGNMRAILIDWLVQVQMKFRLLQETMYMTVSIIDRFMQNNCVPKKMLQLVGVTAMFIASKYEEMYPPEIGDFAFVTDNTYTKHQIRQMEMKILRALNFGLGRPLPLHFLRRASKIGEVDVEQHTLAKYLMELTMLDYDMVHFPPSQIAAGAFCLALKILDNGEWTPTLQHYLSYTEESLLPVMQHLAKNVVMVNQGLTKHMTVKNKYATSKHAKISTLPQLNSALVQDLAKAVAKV

| SMILES | IC50 (Cdc2/cyclin B) | IC50 (arrested HCT-116 cells; [2]) | IC50 [1, 3] | IC50 (arrested IMR90 cells; [4]) | IC50 (arrested HCT-116 cells; serum-starved arrested cells, 72 hours, read-out: Arrested cell assay HCT IC50) | IC50 ([1]; read-out: NCI panel MG-MID (Mean-Graph Mid-point, average IC50 over the whole cell panel)) | IC50 (arrested IMR90 cells; serum-starved arrested cells, 72 hours, read-out: Arrested cell assay IMR90 IC50) |
| --- | --- | --- | --- | --- | --- | --- | --- |
| CC(C)N1CCN(C(=O)COc2ccc(-c3[nH]nc4c3C(=O)c3c(NC(=O)NN5CCOCC5)cccc3-4)cc2)CC1.Cl [Compound A37] | < 100 nM | < 50 nM | < 50 nM | > 10000 nM |  |  |  |
| COCCN1CCN(Cc2ccc(-c3[nH]nc4c3C(=O)c3c(NC(=O)NN5CCOCC5)cccc3-4)cc2)CC1.Cl.Cl [Compound B16, N-[3-(4-{[4-(2-methoxyethyl)piperazinyl]methyl}phenyl)-4-oxoindeno[2,3-d]pyrazol-5-yl](morpholin-4-ylamino)carboxamide dihydrochloride] | < 10 nM | < 50 nM | < 50 nM | > 10000 nM |  |  |  |
| CC(C)c1nn(-c2c(Cl)cccc2Cl)c2nc(Cc3ccc(O)c(CN4CCN(C(C)C)CC4)c3)[nH]c(=O)c12 [Compound C] |  |  |  |  | < 10 nM | < 100 nM | > 1000 nM |
